Data reported in patent US11452717B2, “Small molecule activators of nicotinamide phosphoribosyltransferase (NAMPT) and uses thereof” (Sanford Burnham Prebys Medical Discovery Institute, priority 2017, dated 2022).

Biological target: NAMPT enzyme (Homo sapiens (Human), UniProt P43490)
Test: Enzyme Assay and NMN Detection (NAMPT reaction, fluorescence detection of NMN)
Type: biochemical
Details: Table B-2; NAMPT activation, NMN formation
In short: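 NMN formed was read at ex380/em460 after acetophenone/KOH derivatization and formic acid addition, using a same-day calibration curve. Final conditions: NAMPT 16 nM, nicotinamide 5 uM, PRPP 6.25 uM, ATP 120 uM, pyrophosphatase 0.04 U/ml, pH 7.5 HEPES buffer with MgCl2 and TCEP, 2 h at room temperature.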

NAMPT enzyme, sequence (P43490 whole entry, species assumed): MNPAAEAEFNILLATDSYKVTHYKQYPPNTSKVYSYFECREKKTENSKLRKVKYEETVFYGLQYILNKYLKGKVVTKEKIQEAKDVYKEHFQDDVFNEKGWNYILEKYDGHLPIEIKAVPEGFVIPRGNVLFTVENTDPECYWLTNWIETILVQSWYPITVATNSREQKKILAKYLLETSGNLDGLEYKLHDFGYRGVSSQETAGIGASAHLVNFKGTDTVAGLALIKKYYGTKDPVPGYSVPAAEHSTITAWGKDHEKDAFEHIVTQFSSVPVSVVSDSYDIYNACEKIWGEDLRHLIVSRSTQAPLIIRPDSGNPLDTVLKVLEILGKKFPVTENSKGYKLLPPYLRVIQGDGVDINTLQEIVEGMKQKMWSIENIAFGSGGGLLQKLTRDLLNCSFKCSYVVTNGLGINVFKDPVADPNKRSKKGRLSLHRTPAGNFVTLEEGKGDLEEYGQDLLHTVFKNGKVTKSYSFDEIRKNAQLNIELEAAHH

| Structure (SMILES) | EC50 [nM] |
| --- | --- |
| O=C(NCc1ccncc1)Nc1ccc(C(F)(F)F)cc1 [1-(Pyridin-4-ylmethyl)-3-(4-(trifluoromethyl)phenyl)urea] | 5000 to 20000 |
| Cc1ccc(NC(=O)NCc2ccncc2)cc1 [1-(Pyridin-4-ylmethyl)-3-(p-tolyl)urea] | > 20000 |
| O=C(NCc1ccncc1)Nc1ccc(S(=O)(=O)N2Cc3ccccc3C2)cc1 [1-[4-(1,3-Dihydro-isoindole-2-sulfonyl)-phenyl]-3-pyridin-4-ylmethyl-urea] | 100 to 2000 |

Same assay, conditions: Table B-4; NAMPT activation, NMN formation

| Structure (SMILES) | EC50 [nM] |
| --- | --- |
| Cc1ccc2c(-c3ccc(NC(=O)NCc4cn[nH]c4)cc3)nn(C)c2c1 [1-[4-(1,6-Dimethyl-1H-indazol-3-yl)-phenyl]-3-(1H-pyrazol-4-ylmethyl)-urea] | 100 to 2000 |
| CC(C)CN1CCC(S(=O)(=O)c2ccc(NC(=O)NCc3cn[nH]c3)cc2)CC1 [1-[4-(1-Isobutyl-piperidine-4-sulfonyl)-phenyl]-3-(1H-pyrazol-4-ylmethyl)-urea] | 2000 to 5000 |
| CC(C)n1cc(S(=O)(=O)c2ccc(NC(=O)NCc3cn[nH]c3)cc2)cn1 [1-[4-(1-Isopropyl-1H-pyrazole-4-sulfonyl)-phenyl]-3-(1H-pyrazol-4-ylmethyl)-urea] | < 100 |
| CC(C)N1CCC(S(=O)(=O)c2ccc(NC(=O)NCc3cn[nH]c3)cc2)CC1 [1-[4-(1-Isopropyl-piperidine-4-sulfonyl)-phenyl]-3-(1H-pyrazol-4-ylmethyl)-urea] | 2000 to 5000 |
| Cn1nc(-c2ccc(NC(=O)NCc3cn[nH]c3)cc2)c2ccccc21 [1-[4-(1-Methyl-1H-indazol-3-yl)-phenyl]-3-(1H-pyrazol-4-ylmethyl)-urea] | 100 to 2000 |
| Cn1cc(S(=O)(=O)c2ccc(NC(=O)NCc3cn[nH]c3)cc2)cn1 [1-[4-(1-Methyl-1H-pyrazole-4-sulfonyl)-phenyl]-3-(1H-pyrazol-4-ylmethyl)-urea] | 100 to 2000 |
| Cn1nc(-c2ccc(NC(=O)NCc3cn[nH]c3)cc2)c2cccnc21 [1-[4-(1-Methyl-1H-pyrazolo[3,4-b]pyridin-3-yl)-phenyl]-3-(1H-pyrazol-4-ylmethyl)-urea] | 100 to 2000 |
| Cn1nc(-c2ccc(NC(=O)NCc3cn[nH]c3)cc2)c2ncccc21 [1-[4-(1-Methyl-1H-pyrazolo[4,3-b]pyridin-3-yl)-phenyl]-3-(1H-pyrazol-4-ylmethyl)-urea] | 100 to 2000 |
| Cn1nc(-c2ccc(NC(=O)NCc3cn[nH]c3)cc2)c2cnccc21 [1-[4-(1-Methyl-1H-pyrazolo[4,3-c]pyridin-3-yl)-phenyl]-3-(1H-pyrazol-4-ylmethyl)-urea] | 2000 to 5000 |
| CN1CCC(S(=O)(=O)c2ccc(NC(=O)NCc3cn[nH]c3)cc2)CC1 [1-[4-(1-Methyl-piperidine-4-sulfonyl)-phenyl]-3-(1H-pyrazol-4-ylmethyl)-urea] | 2000 to 5000 |

Same assay, conditions: Table B-5; NAMPT activation, NMN formation

| Structure (SMILES) | EC50 [nM] |
| --- | --- |
| O=C(NCc1cnco1)Nc1ccc(S(=O)(=O)c2ccccc2C(F)(F)F)cc1 [1-Oxazol-5-ylmethyl-3-[4-(2-trifluoromethyl-benzenesulfonyl)-phenyl]-urea] | 100 to 2000 |
| O=C(NCc1cnco1)Nc1ccc(S(=O)(=O)c2ccc(OC(F)(F)F)cc2)cc1 [1-Oxazol-5-ylmethyl-3-[4-(4-trifluoromethoxy-benzenesulfonyl)-phenyl]-urea] | 100 to 2000 |
| O=C(NCc1cnco1)Nc1ccc(S(=O)(=O)c2cnccn2)cc1 [1-Oxazol-5-ylmethyl-3-[4-(pyrazine-2-sulfonyl)-phenyl]-urea] | 100 to 2000 |
| O=C(NCc1cnco1)Nc1ccc(S(=O)(=O)c2cccnc2)cc1 [1-Oxazol-5-ylmethyl-3-[4-(pyridine-3-sulfonyl)-phenyl]-urea] | 100 to 2000 |
| O=C(NCc1cnco1)Nc1ccc(S(=O)(=O)c2ncccn2)cc1 [1-Oxazol-5-ylmethyl-3-[4-(pyrimidine-2-sulfonyl)-phenyl]-urea] | 5000 to 20000 |
| O=C(NCc1cnco1)Nc1ccc(S(=O)(=O)c2nccs2)cc1 [1-Oxazol-5-ylmethyl-3-[4-(thiazole-2-sulfonyl)-phenyl]-urea] | 100 to 2000 |
| Cc1ccccc1S(=O)(=O)c1ccc(NC(=O)NCc2cnco2)cc1 [1-Oxazol-5-ylmethyl-3-[4-(toluene-2-sulfonyl)-phenyl]-urea] | 100 to 2000 |
| Cc1cccc(S(=O)(=O)c2ccc(NC(=O)NCc3cnco3)cc2)c1 [1-Oxazol-5-ylmethyl-3-[4-(toluene-3-sulfonyl)-phenyl]-urea] | 100 to 2000 |
| Cc1ccc(S(=O)(=O)c2ccc(NC(=O)NCc3cnco3)cc2)cc1 [1-Oxazol-5-ylmethyl-3-[4-(toluene-4-sulfonyl)-phenyl]-urea] | 2000 to 5000 |
| O=C(NCc1cnco1)Nc1ccc(S(=O)(=O)C2CCN(C3CCOCC3)CC2)cc1 [1-Oxazol-5-ylmethyl-3-{4-[1-(tetrahydro-pyran-4-yl)-piperidine-4-sulfonyl]-phenyl}-urea] | 100 to 2000 |
| Cc1ccc2c(-c3ccc(NC(=O)NCc4cnco4)cc3)nn(C)c2c1 [1-[4-(1,6-Dimethyl-1H-indazol-3-yl)-phenyl]-3-oxazol-5-ylmethyl-urea] | 100 to 2000 |
| CC(C)n1cc(S(=O)(=O)c2ccc(NC(=O)NCc3cnco3)cc2)cn1 [1-[4-(1-Isopropyl-1H-pyrazole-4-sulfonyl)-phenyl]-3-oxazol-5-ylmethyl-urea] | 100 to 2000 |
| Cn1nc(-c2ccc(NC(=O)NCc3cnco3)cc2)c2ccccc21 [1-[4-(1-Methyl-1H-indazol-3-yl)-phenyl]-3-oxazol-5-ylmethyl-urea] | 2000 to 5000 |
| Cn1cc(S(=O)(=O)c2ccc(NC(=O)NCc3cnco3)cc2)cn1 [1-[4-(1-Methyl-1H-pyrazole-4-sulfonyl)-phenyl]-3-oxazol-5-ylmethyl-urea] | 2000 to 5000 |
| Cn1nc(-c2ccc(NC(=O)NCc3cnco3)cc2)c2cccnc21 [1-[4-(1-Methyl-1H-pyrazolo[3,4-b]pyridin-3-yl)-phenyl]-3-oxazol-5-ylmethyl-urea] | 2000 to 5000 |
| Cn1nc(-c2ccc(NC(=O)NCc3cnco3)cc2)c2ncccc21 [1-[4-(1-Methyl-1H-pyrazolo[4,3-b]pyridin-3-yl)-phenyl]-3-oxazol-5-ylmethyl-urea] | 2000 to 5000 |
| Cn1nc(-c2ccc(NC(=O)NCc3cnco3)cc2)c2cnccc21 [1-[4-(1-Methyl-1H-pyrazolo[4,3-c]pyridin-3-yl)-phenyl]-3-oxazol-5-ylmethyl-urea] | 5000 to 20000 |

Same assay, conditions: Table B-6; NAMPT activation, NMN formation

| Structure (SMILES) | EC50 [nM] |
| --- | --- |
| O=C(NCc1ccncc1)Nc1ccc(S(=O)(=O)c2cncs2)cc1 [1-Pyridin-4-ylmethyl)-3-(4-(thiazol-5-ylsulfonyl)phenyl)urea] | 100 to 2000 |
| O=C(NCc1ccncc1)Nc1ccc(S(=O)(=O)c2ccccc2OC(F)(F)F)cc1 [1-Pyridin-4-ylmethyl-3-[4-(2-trifluoromethoxy-benzenesulfonyl)-phenyl]-urea] | < 100 |
| O=C(NCc1ccncc1)Nc1ccc(S(=O)(=O)c2ccccc2C(F)(F)F)cc1 [1-Pyridin-4-ylmethyl-3-[4-(2-trifluoromethyl-benzenesulfonyl)-phenyl]-urea] | 100 to 2000 |
| O=C(NCc1ccncc1)Nc1ccc(S(=O)(=O)c2cccc(OC(F)(F)F)c2)cc1 [1-Pyridin-4-ylmethyl-3-[4-(3-trifluoromethoxy-benzenesulfonyl)-phenyl]-urea] | < 100 |
| O=C(NCc1ccncc1)Nc1ccc(S(=O)(=O)c2ccc(OC(F)(F)F)cc2)cc1 [1-Pyridin-4-ylmethyl-3-[4-(4-trifluoromethoxy-benzenesulfonyl)-phenyl]-urea] | 100 to 2000 |
| O=C(NCc1ccncc1)Nc1ccc(S(=O)(=O)c2ncccn2)cc1 [1-Pyridin-4-ylmethyl-3-[4-(pyrimidine-2-sulfonyl)-phenyl]-urea] | 2000 to 5000 |
| Cc1ccccc1S(=O)(=O)c1ccc(NC(=O)NCc2ccncc2)cc1 [1-Pyridin-4-ylmethyl-3-[4-(toluene-2-sulfonyl)-phenyl]-urea] | 100 to 2000 |
| Cc1cccc(S(=O)(=O)c2ccc(NC(=O)NCc3ccncc3)cc2)c1 [1-Pyridin-4-ylmethyl-3-[4-(toluene-3-sulfonyl)-phenyl]-urea] | 100 to 2000 |
| Cc1ccc(S(=O)(=O)c2ccc(NC(=O)NCc3ccncc3)cc2)cc1 [1-Pyridin-4-ylmethyl-3-[4-(toluene-4-sulfonyl)-phenyl]-urea] | < 100 |
| Cc1ccc2c(-c3ccc(NC(=O)NCc4ccncc4)cc3)nn(C)c2c1 [1-[4-(1,6-Dimethyl-1H-indazol-3-yl)-phenyl]-3-pyridin-4-ylmethyl-urea] | 100 to 2000 |
| CC(C)CN1CCC(S(=O)(=O)c2ccc(NC(=O)NCc3ccncc3)cc2)CC1 [1-[4-(1-Isobutyl-piperidine-4-sulfonyl)-phenyl]-3-pyridin-4-ylmethyl-urea] | 2000 to 5000 |
| CC(C)n1cc(S(=O)(=O)c2ccc(NC(=O)NCc3ccncc3)cc2)cn1 [1-[4-(1-Isopropyl-1H-pyrazole-4-sulfonyl)-phenyl]-3-pyridin-4-ylmethyl-urea] | < 100 |
| CC(C)N1CCC(S(=O)(=O)c2ccc(NC(=O)NCc3ccncc3)cc2)CC1 [1-[4-(1-Isopropyl-piperidine-4-sulfonyl)-phenyl]-3-pyridin-4-ylmethyl-urea] | 100 to 2000 |
| Cn1nc(-c2ccc(NC(=O)NCc3ccncc3)cc2)c2ccccc21 [1-[4-(1-Methyl-1H-indazol-3-yl)-phenyl]-3-pyridin-4-ylmethyl-urea] | 100 to 2000 |
| Cn1cc(S(=O)(=O)c2ccc(NC(=O)NCc3ccncc3)cc2)cn1 [1-[4-(1-Methyl-1H-pyrazole-4-sulfonyl)-phenyl]-3-pyridin-4-ylmethyl-urea] | 100 to 2000 |
| Cn1nc(-c2ccc(NC(=O)NCc3ccncc3)cc2)c2cccnc21 [1-[4-(1-Methyl-1H-pyrazolo[3,4-b]pyridin-3-yl)-phenyl]-3-pyridin-4-ylmethyl-urea] | 5000 to 20000 |
| Cn1nc(-c2ccc(NC(=O)NCc3ccncc3)cc2)c2ncccc21 [1-[4-(1-Methyl-1H-pyrazolo[4,3-b]pyridin-3-yl)-phenyl]-3-pyridin-4-ylmethyl-urea] | 100 to 2000 |
| Cn1nc(-c2ccc(NC(=O)NCc3ccncc3)cc2)c2cnccc21 [1-[4-(1-Methyl-1H-pyrazolo[4,3-c]pyridin-3-yl)-phenyl]-3-pyridin-4-ylmethyl-urea] | 5000 to 20000 |
